Laboratory results: US20230391788A1 (NAVIN SAXENA RESEARCH & TECHNOLOGY PVT. LTD., priority 2020, published 2023)

Assays:
[1] = after oral dosing; cited from earlier work
[2] = Storage stability of naltrexone decanoate; type: physicochemical; details: storage condition of less than 25° C.

| SMILES | time at which peak plasma levels occur [1] | period over which stable [2] |
| --- | --- | --- |
| Oc1ccc2c3c1O[C@H]1[C@H](O)CC[C@@]4(O)[C@@H](C2)N(CC2CC2)CC[C@]314 [6-β-naltrexol] | one |  |
| CCCCCCCCCC(=O)Oc1ccc2c3c1O[C@H]1C(=O)CC[C@@]4(O)[C@@H](C2)N(CC2CC2)CC[C@]314 [naltrexone decanoate, 17-(cyclopropylmethyl)-4,5-epoxy-14-hydroxy-3-[(1-oxodecyl)oxy]-(5α)-morphinan-6-one] |  | ≤ 60 months |
| O=C1CC[C@@]2(O)[C@H]3Cc4ccc(O)c5c4[C@@]2(CCN3CC2CC2)[C@H]1O5 [naltrexone, Naltrexone, reference compound] | one |  |
